We go through 2 compounds from the NIST ThermoML archive (doi:10.1021/je800077r).

The structures appear in SMILES notation. ± gives the expanded uncertainty stated by the source.

The nature of data set [1]: xn = mol fraction of the nth substance listed. The following applies: 101 kPa, Liquid; for speed of sound: Sing-around technique in a fixed-path interferometer; for mass density: Vibrating tube method.
The nature of data set [2]: refractive index (Na D-line) (dimensionless); xn = mol fraction of the nth substance listed. Conditions: 101 kPa, Liquid, Standard Abbe refractometry.

With `CCCCCC` [hexane] + CCOC(C)=O, the speed of sound in data set [1] (293.15 K, x1 = 1) is reported as 1100 ± 2 m/s; in data set [1] (298.15 K, x1 = 1), 1078 ± 2 m/s; in data set [1] (303.15 K, x1 = 1) it was 1055 ± 2 m/s. The mass density in data set [1] (293.15 K, x1 = 1) amounted to 659.5 ± 0.3 kg/m3; in data set [1] (298.15 K, x1 = 1) it was 654.9 ± 0.3 kg/m3; in data set [1] (303.15 K, x1 = 1), 650.4 ± 0.3 kg/m3. The refractive index in data set [2] (293.15 K, x1 = 1) is listed as 1.37495 ± 0.00067; in data set [2] (298.15 K, x1 = 1) it was 1.37217 ± 0.00067; in data set [2] (303.15 K, x1 = 1), 1.36936 ± 0.00067.

In the case of `CCOC(C)=O` [ethyl acetate] + CCCCCCn1cc[n+](C)c1.F[P-](F)(F)(F)(F)F, the speed of sound is given as 1162 ± 1 m/s in data set [1] (293.15 K, x2 = 0); 1141 ± 1 m/s in data set [1] (298.15 K, x2 = 0); 1111 ± 1 m/s in data set [1] (303.15 K, x2 = 0). Besides, the mass density in data set [1] (293.15 K, x2 = 0) is given as 900.5 ± 0.1 kg/m3; in data set [1] (298.15 K, x2 = 0) it was 894.4 ± 0.1 kg/m3; in data set [1] (303.15 K, x2 = 0), 888.2 ± 0.1 kg/m3. Moreover, the refractive index in data set [2] (293.15 K, x2 = 0) is recorded as 1.37241 ± 0.00061; in data set [2] (298.15 K, x2 = 0), 1.36977 ± 0.00061; in data set [2] (303.15 K, x2 = 0), 1.36712 ± 0.00062.
